Source: ChEMBL document CHEMBL1629593 (Antimicrob Agents Chemother, 2009)
Active and inactive are the calls of the source. No cut-off for these calls is given here.

Experiments:
Staphylococcus aureus [1] = assay: fCmin in heterogeneous vancomycin-intermediate Staphylococcus aureus 1629 infected in vivo pharmacodynamic model at 1500 mg treated every 12 hrs; type: ADME, organism-based
[2] = Ratio of fAUC in […] pharmacodynamic model to MIC for multidrug-resistant Staphylococcus aureus; type: functional
Staphylococcus aureus [3] = assay: Antibacterial activity against heterogeneous vancomycin-intermediate Staphylococcus aureus Mu3 infected in […] pharmacodynamic model at 2500 mg treated every 12 hrs measured after 24 hrs post dose; type: functional
Staphylococcus aureus [4] = assay: fCmin in heterogeneous vancomycin-intermediate Staphylococcus aureus Mu3 infected in vivo pharmacodynamic model at 2250 mg treated every 12 hrs; type: ADME, organism-based
[5] = Ratio of fAUC in […] pharmacodynamic model to MIC for multidrug-resistant Staphylococcus aureus 3286 at 1500 mg treated every 12 hrs; type: functional
Staphylococcus aureus [6] = assay: fCmin in heterogeneous vancomycin-intermediate Staphylococcus aureus Mu3 infected in vivo pharmacodynamic model at 700 mg treated every 12 hrs; type: ADME, organism-based
Staphylococcus aureus [7] = assay: fCmin in multidrug-resistant Staphylococcus aureus 3286 infected […] pharmacodynamic model at 4000 mg treated every 12 hrs; type: ADME, organism-based
Staphylococcus aureus [8] = assay: Antibacterial activity against heterogeneous vancomycin-intermediate Staphylococcus aureus Mu3 infected in […] pharmacodynamic model at 1500 mg treated every 12 hrs measured after 48 hrs post dose; type: functional
Staphylococcus aureus [9] = assay: fCmin in multidrug-resistant Staphylococcus aureus 3286 infected […] pharmacodynamic model at 1000 mg treated every 12 hrs; type: ADME, organism-based
Staphylococcus aureus [10] = assay: fCmin in heterogeneous vancomycin-intermediate Staphylococcus aureus Mu3 infected […] pharmacodynamic model at 1000 mg treated every 12 hrs; type: ADME, organism-based
[11] = Ratio of fAUC in […] pharmacodynamic model to MIC for heterogeneous vancomycin-intermediate Staphylococcus aureus Mu3 at 5000 mg treated every 12 hrs; type: functional
[12] = Ratio of fAUC in […] pharmacodynamic model to MIC for heterogeneous vancomycin-intermediate Staphylococcus aureus Mu3 at 2500 mg treated every 12 hrs; type: functional
Staphylococcus aureus [13] = assay: fCmin in heterogeneous vancomycin-intermediate Staphylococcus aureus Mu3 infected […] pharmacodynamic model at 2000 mg treated every 12 hrs; type: ADME, organism-based
[14] = Ratio of fAUC in […] pharmacodynamic model to MIC for heterogeneous vancomycin-intermediate Staphylococcus aureus Mu3 at 750 mg treated every 12 hrs; type: functional
[15] = Ratio of fAUC in […] pharmacodynamic model to MIC for heterogeneous vancomycin-intermediate Staphylococcus aureus Mu3 at 2250 mg treated every 12 hrs; type: functional
[16] = Ratio of fAUC in […] pharmacodynamic model to MIC for multidrug-resistant Staphylococcus aureus 3286 at 1000 mg treated every 12 hrs; type: functional
[17] = Ratio of fAUC in […] pharmacodynamic model to MIC for heterogeneous vancomycin-intermediate Staphylococcus aureus 1629 at 750 mg treated every 12 hrs; type: functional
Staphylococcus aureus [18] = assay: Antibacterial activity against heterogeneous vancomycin-intermediate Staphylococcus aureus 1629 infected in […] pharmacodynamic model at 700 mg treated every 12 hrs measured after 72 hrs post dose; type: functional
[19] = Ratio of fAUC in […] pharmacodynamic model to MIC for heterogeneous vancomycin-intermediate Staphylococcus aureus Mu3 at 2000 mg treated every 12 hrs; type: functional
Staphylococcus aureus [20] = assay: fCmin in heterogeneous vancomycin-intermediate Staphylococcus aureus Mu3 infected in vivo pharmacodynamic model at 5000 mg treated every 12 hrs; type: ADME, organism-based
Staphylococcus aureus [21] = assay: fCmin in heterogeneous vancomycin-intermediate Staphylococcus aureus Mu3 infected in vivo pharmacodynamic model at 1500 mg treated every 12 hrs; type: ADME, organism-based
[22] = Ratio of fAUC in […] pharmacodynamic model to MIC for heterogeneous vancomycin-intermediate Staphylococcus aureus Mu3 at 1000 mg treated every 12 hrs; type: functional
[23] = Ratio of fAUC in […] pharmacodynamic model to MIC for heterogeneous vancomycin-intermediate Staphylococcus aureus 1629 at 4000 mg treated every 12 hrs; type: functional
Staphylococcus aureus [24] = assay: fCmin in heterogeneous vancomycin-intermediate Staphylococcus aureus Mu3 infected in vivo pharmacodynamic model at 2500 mg treated every 12 hrs; type: ADME, organism-based
Staphylococcus aureus [25] = assay: fCmin in multidrug-resistant Staphylococcus aureus 3286 infected in vivo pharmacodynamic model at 1500 mg treated every 12 hrs; type: ADME, organism-based
[26] = Ratio of fAUC in […] pharmacodynamic model to MIC for multidrug-resistant Staphylococcus aureus 3286 at 2000 mg treated every 12 hrs; type: functional
Staphylococcus aureus [27] = assay: Antibacterial activity against multidrug-resistant Staphylococcus aureus 3286 infected in […] pharmacodynamic model at 2000 mg treated every 12 hrs measured after 48 hrs post dose; type: functional
[28] = Ratio of fAUC in […] pharmacodynamic model to MIC for multidrug-resistant Staphylococcus aureus 3286 at 4000 mg treated every 12 hrs; type: functional
[29] = Ratio of fAUC in […] pharmacodynamic model to MIC for heterogeneous vancomycin-intermediate Staphylococcus aureus 1629 at 2000 mg treated every 12 hrs; type: functional
[30] = Ratio of fAUC in […] pharmacodynamic model to MIC for heterogeneous vancomycin-intermediate Staphylococcus aureus 1629 at 1000 mg treated every 12 hrs; type: functional
Staphylococcus aureus [31] = assay: fCmin in multidrug-resistant Staphylococcus aureus 3286 infected in vivo pharmacodynamic model at 2000 mg treated every 12 hrs; type: ADME, organism-based
Staphylococcus aureus [32] = assay: Antibacterial activity against multidrug-resistant Staphylococcus aureus 3286 infected in in vitro pharmacodynamic model at 1000 to 2000 mg treated every 12 hrs using 10^6 CFU/ml inoculum by time-kill analysis; type: functional, organism-based
Staphylococcus aureus [33] = assay: fCmin in heterogeneous vancomycin-intermediate Staphylococcus aureus 1629 infected in vivo pharmacodynamic model at 1750 mg treated every 12 hrs; type: ADME, organism-based
Staphylococcus aureus [34] = assay: Antibacterial activity against heterogeneous vancomycin-intermediate Staphylococcus aureus Mu3 infected in […] pharmacodynamic model at 1000 mg treated every 12 hrs measured after 48 hrs post dose; type: functional
Staphylococcus aureus [35] = assay: fCmin in heterogeneous vancomycin-intermediate Staphylococcus aureus 1629 infected in vivo pharmacodynamic model at 750 mg treated every 12 hrs; type: ADME, organism-based
Staphylococcus aureus [36] = assay: Antibacterial activity against multidrug-resistant Staphylococcus aureus 3286 infected in […] pharmacodynamic model at 4000 mg treated every 12 hrs measured after 72 hrs post dose; type: functional
Staphylococcus aureus [37] = assay: fCmin in heterogeneous vancomycin-intermediate Staphylococcus aureus 1629 infected […] pharmacodynamic model at 1000 mg treated every 12 hrs; type: ADME, organism-based
Staphylococcus aureus [38] = assay: Antibacterial activity against heterogeneous vancomycin-intermediate Staphylococcus aureus Mu3 infected in […] pharmacodynamic model at 1000 mg treated every 12 hrs measured after 24 hrs post dose; type: functional
Staphylococcus aureus [39] = assay: fCmin in heterogeneous vancomycin-intermediate Staphylococcus aureus 1629 infected in vivo pharmacodynamic model at 2000 mg treated every 12 hrs; type: ADME, organism-based
Staphylococcus aureus [40] = assay: Antibacterial activity against heterogeneous vancomycin-intermediate Staphylococcus aureus Mu3 infected in […] pharmacodynamic model at 2500 mg treated every 12 hrs measured after 48 hrs post dose; type: functional
Staphylococcus aureus [41] = assay: fCmin in heterogeneous vancomycin-intermediate Staphylococcus aureus 1629 infected in vivo pharmacodynamic model at 4000 mg treated every 12 hrs; type: ADME, organism-based

In the case of `CN[C@H](CC(C)C)C(=O)N[C@H]1C(=O)N[C@@H](CC(N)=O)C(=O)N[C@H]2C(=O)N[C@H]3C(=O)N[C@H](C(=O)N[C@H](C(=O)O)c4cc(O)cc(O)c4-c4cc3ccc4O)[C@H](O)c3ccc(c(Cl)c3)Oc3cc2cc(c3O[C@@H]2O[C@H](CO)[C@@H](O)[C@H](O)[C@H]2O[C@H]2C[C@](C)(N)[C@H](O)[C@H](C)O2)Oc2ccc(cc2Cl)[C@H]1O` [VANCOMYCIN], the fCmin (Staphylococcus aureus [1]) is reported as 7 mg/L, the fAUC/MIC [2] is reported as “>=180” and the CFU/ml (Staphylococcus aureus [3]) is reported as 2. For the same molecule, the fCmin (Staphylococcus aureus [4]) was 12 mg/L, the fAUC/MIC [5] was 992 and the fCmin (Staphylococcus aureus [6]) was 3 mg/L. For the same molecule, the fCmin (Staphylococcus aureus [7]) was 22 mg/L, the CFU/ml (Staphylococcus aureus [8]) was 3 and the fCmin (Staphylococcus aureus [9]) was 3 mg/L. For the same molecule, the fCmin (Staphylococcus aureus [10]) was 4 mg/L, the fAUC/MIC [11] was 799 and the fAUC/MIC [12] was 374. The fCmin (Staphylococcus aureus [13]) was 11 mg/L, the fAUC/MIC [14] was 105 and the fAUC/MIC [15] was 317. It also gave a fAUC/MIC [16] of 552, a fAUC/MIC [17] of 105 and a CFU/ml (Staphylococcus aureus [18]) of 3. For the same molecule, the fAUC/MIC [19] was 269, the fCmin (Staphylococcus aureus [20]) was 26 mg/L and the fCmin (Staphylococcus aureus [21]) was 7 mg/L. The fAUC/MIC [22] was 168, the fAUC/MIC [23] was 644 and the fCmin (Staphylococcus aureus [24]) was 16 mg/L. The fCmin (Staphylococcus aureus [25]) was 7 mg/L, the fAUC/MIC [26] was 1084 and the CFU/ml (Staphylococcus aureus [27]) was 0.5. For the same molecule, the fAUC/MIC [28] was 2576, the fAUC/MIC [29] was 271 and the fAUC/MIC [30] was 138. For the same molecule, the fCmin (Staphylococcus aureus [31]) was 12 mg/L, the Activity (Staphylococcus aureus [32]) was “Active” and the fCmin (Staphylococcus aureus [33]) was 10 mg/L. The CFU/ml (Staphylococcus aureus [34]) was 3, the fCmin (Staphylococcus aureus [35]) was 3 mg/L and the CFU/ml (Staphylococcus aureus [36]) was 0.5. It also gave a fCmin (Staphylococcus aureus [37]) of 3 mg/L, a CFU/ml (Staphylococcus aureus [38]) of 2 and a fCmin (Staphylococcus aureus [39]) of 12 mg/L. The CFU/ml (Staphylococcus aureus [40]) was 2 and the fCmin (Staphylococcus aureus [41]) was 22 mg/L.
